Patent publication US20250025438A1, “Derivative of aspartic acid and use thereof in treatment of metabolic diseases such as hepatic fibrosis and non-alcoholic hepatitis” (SHENZHEN JINGTAI TECHNOLOGY CO., LTD., priority 2021, published 2025)
Structures can show the parent of a compound that is named as a salt. Where two headings read alike, the source gives them in different places.

Assays:
α-SMA [1] = assay: In-vitro liver fibrosis model in activated LX2 cells (TGFβ1), qPCR: α-SMA; assay type: cell-based; settings: LX-2 cells activated with TGFβ1 (5 ng/mL), 25 μM compound, 24 hours, real-time PCR
Experimental: (§1) This experiment was performed strictly in accordance with the instructions of the Total RNA Kit. The steps were as follows (note: this experiment was performed on ice throughout the entire process, and special RNase-free tips were used throughout the entire process): • 1) The 12-well cell culture plate was taken out from the incubator, the cell culture medium was discarded, the cells were washed twice with 1 mL of 1×PBS, and a negative pressure suction device was used to fully remove PBS; • 2) 350 μL of TRK Lysis Buffer mixture/well was prepared as needed (mixture preparation method: 1 mL of TRKLysis Buffer+20 μL of β-mercaptoethanol), vortexed and mixed well. 350 μL was added to each well of the 12-well cell culture plate, and allowed to stand at room temperature for 5 minutes to fully lyse the cells; • 3) 70% ethanol/well was prepared as needed, vortexed and mixed well. 350 μL was added to each well of the 12-well cell culture plate, mixed well by shaking, and transferred to the spin column (spin column+collection tube were assembled); • 4) Centrifugation was performed at 4° C., 12000 g for 60 sec. […]

collagen 1 = assay: In-vitro liver fibrosis model in activated LX2 cells (TGFβ1), qPCR: collagen 1; assay type: cell-based; settings: LX-2 cells activated with TGFβ1 (5 ng/mL), 25 μM compound, 24 hours, real-time PCR
Experimental: as §1

collagen 3 = assay: In-vitro liver fibrosis model in activated LX2 cells (TGFβ1), qPCR: collagen 3; assay type: cell-based; settings: LX-2 cells activated with TGFβ1 (5 ng/mL), 25 μM compound, 24 hours, real-time PCR
Experimental: as §1

[2] = Pharmacokinetic testing in rats; assay type: in vivo, SD rats
Experimental: Rats were used as test animals to study the pharmacokinetic behavior of the following compounds in rat plasma.
The drugs were self-made according to the examples of the present invention.
SD rats, 6-8 weeks old, 3 for each administration method/example, male.
The animals were fasted overnight, ate food 8 hours after taking the drug, and drank water freely.
Blood was collected before administration and at 5 min, 15 min, 30 min, 1 hr, 2 hr, 4 hr, 8 hr and 24 hr after administration.
The blood was placed on wet ice and centrifuged to obtain plasma sample (2000 g, 5 min at 4° C.).
The LC-MS/MS method was used to determine the blood drug concentration. The HPLC conditions were: mobile phase A: H2O-0.5% FA; mobile phase B: ACN-0.5% FA;
WinNonlin 8.2 non-compartmental model was used to estimate pharmacokinetic parameters (PK parameters, including but not limited to peak concentration (Cmax), time to peak (Tmax), terminal elimination rate (Ke), terminal elimination half-life (T1/2), area under drug-time curve (AUC), clearance rate (CL), apparent volume of distribution (Vd), mean residence time (MRT), bioavailability (F), etc.).

FN = assay: Semi-activated LX2 cells, Western blot: FN protein; assay type: cell-based; settings: 50-400 μM, 48 hours, FIG. 3, vs 50 μM aspartic acid
collagen I = assay: Activated LX2 cells (TGFβ1), Western blot: Collagen I; assay type: cell-based; settings: LX2 cells stimulated with TGFβ1 (5 ng/mL), 24 hours, FIG. 4
α-SMA [3] = assay: Activated LX2 cells (TGFβ1), Western blot: α-SMA; assay type: cell-based; settings: LX2 cells stimulated with TGFβ1 (5 ng/mL), 24 hours, FIG. 4
[4] = male, SD, rat, plasma, PO 20 mg/kg

AUC compared with rats administrated with aspartic acid ([2]; PO 20 mg/kg) | Cmax compared with rats administrated with aspartic acid ([2]; PO 20 mg/kg) | Tmax compared with rats administered with aspartic acid ([2]; PO 20 mg/kg) | Cmax ([2]; male, SD, rat, plasma, Compound 6 IV 10 mg/kg, read-out: Cmax of Compound 6) [ng/mL] | Cmax ([2]; male, SD, rat, plasma, Compound 6 PO 40 mg/kg, read-out: Cmax of Compound 6) [ng/mL] | AUC(0-t) [2, 4] [ng·h/mL] | Tmax [2, 4] [min] | Cmax ([2]; male, SD, rat, plasma, PO 20 mg/kg, read-out: Cmax) [ng/mL] | SMILES | α-SMA gene expression inhibition rate (α-SMA [1]) | collagen 1 gene expression inhibition rate (collagen 1) | collagen 3 gene expression inhibition rate (collagen 3) | inhibitory effect on FN protein expression as compared to ASP (FN) | expression of Collagen I in the cells (collagen I) | expression of α-SMA in the cells (α-SMA [3])
 |  |  |  |  |  |  |  | COC(=O)[C@@H](N)CC(=O)O [Compound 4] | B (B represented that the inhibition rate was 10% to 25%) | A (A represented that the inhibition rate was 25% or above) | A (A represented that the inhibition rate was 25% or above) |  |  | 
significantly higher | significantly higher | significantly smaller | 6100 | 22500 | 71300 | 30 | 14800 | COC(=O)C[C@H](N)C(=O)O [Compound 6] | A (A represented that the inhibition rate was 25% or above) | B (B represented that the inhibition rate was 10% to 25%) | A (A represented that the inhibition rate was 25% or above) |  |  | 
 |  |  |  |  |  |  |  | COC(=O)C[C@H](N)C(=O)OCOC(=O)[C@@H](N)CC(=O)OC [Compound 54, 4-dimethyl O′1,01-methylene (2S,2'S)-bis (2-aminosuccinate) hydrochloride] |  |  |  | stronger inhibitory effects | significantly decreased | significantly decreased
